Experimental data taken from patent US12559784B2 (priority 2023, dated 2026).
Where “and” joins values, the source holds several entries; their conditions need not be identical. Equal values may be shown once. Read-outs that look alike come from different tables or passages of the source.

Experiments:
alkaline phosphatase [1] = type: biochemical
Description: New stocks were made the of the 1:100 alkaline phosphatase reaction reagents.
The conditions included: 1:100 dilution of alkaline phosphatase reaction reagent with two solvents (buffered saline and ethanol), dosing in 0.5 mL microcentrifuge tubes with 20 μL of chemical added to 180 μL of reaction reagent, and incubating with p-Nitrophenyl phosphate disodium salt (PNPP) substrate for 1-hour.

alkaline phosphatase [2] = type: biochemical; conditions: 3-hour exposure; 10 μL into 90 μL
skin = conditions: cited from earlier work; for in vivo GHS: skin
phosphatase = type: biochemical, porcine; conditions: for percent of phosphatase measured (optical density compared to the naïve condition), average: average of two readings; for percent of phosphatase measured (optical density compared to the naïve condition): single readings
Description: Our next studies involved applying the test substance (500 μL) directly to the epidermis side of previously frozen porcine skin (Spear Products, Coopersburg, PA) that is placed in a holder that only exposes the epidermis side for 30 minutes, adding phosphate buffered saline (PBS) with added sodium azide (metabolic inhibitor that ensure no viable tissue), then aliquoting into cuvettes to read at an optical density of 300 nm. […] So, at the end of the initial studies described above, almost out of frustration, we tried to probe for released phosphatase activity using p-Nitrophenyl phosphate disodium salt (PNPP; Sigma Aldrich, St. Louis, MO) substrate solution to detect any presence of phosphatase.
Preparation • 1. Thaw 2 pieces of frozen porcine skin • a. Punch out as many skin discs and mount in holders • 2. Label cuvettes (3 for each chemical) Procedure • 1. Add 500 μL of test chemical to holder; incubate at room temperate for 30 minutes • 2. After 30 minutes, add 2 mL of PBS-Azide to both the holder containing the test chemical; forcefully pipette and re-pipette 10 times • 3. From the holder, aliquot 400 μL into 3 cuvettes; forcefully pipette and re-pipette 3 times before dispensing into cuvettes Reading Results • 1. Measure at OD300 for all cuvettes
Skin corrosion by GHS Category 1 dermal corrosive chemicals results in the disintegration of the epidermis into the dermis.

alkaline phosphatase [3] = test: Alkaline phosphatase experiment, third week: with and without discs; type: biochemical; conditions: 405 nm, 100 μL chemical, 18 hours 37° C., PNPP 1 hour; for raw optical density reading (PNPP), with discs (FIG. 3A): 1.25 mL reaction reagent (10,000 units); for raw optical density reading (PNPP), without discs (FIG. 3B): 1.25 mL reaction reagent
Text: Our next study focused on an in vitro method of detecting the potential of dermal corrosives to inhibit nonspecific phosphatases that may be released from the skin. We decided to test pure […] instead of relying on endogenous skin phosphatase. Alkaline phosphatase (Sigma Aldrich, St. Louis, MO) was purchased and suspended to make the reaction reagent (10,000 units). […] We note that the ratio used was 0.1 g/ml or 10% chemical—which is far in excess of any pharmaceutical applications. We further note that pharmaceutical enzyme inhibition tests, studies an use involve highly specific active site binding and these assays are conducted at ratios of micrograms-femtograms per ml. These studies are done at these ranges because these are the realistic concentrations for drug applications and therapeutics. […] So when a 50 Kg human consumes the tables, the tissues will be exposed at a 5 mg/50 kg=0.1 mg/kg=0.0000001 g/ml.
Next two quantitative methods were evaluated: 1) using the discs parts from our OptiSafe™ test method and 2) directly into the 24-well plate.
Preparation • 1. Alkaline phosphatase reaction reagent • a. Take 1 vial of AP, add 1 mL of PBS, mix by pipette/re-pipette 10 times • b. To a 50 mL conical tube, add 1 mL of the AP solution prepared above and 40 mL of PBS • 2. Prepare two 24-well plates (1 with discs, 1 without discs) • 3. […] Aliquot 200 μL PNPP and PBS Procedure • 1. Plate 1 (No Discs) • a. Add 1.25 mL from the prepared PBS-AP conical tube to each well (11 wells) • b. Add 100 μL of the test material to the well, mix with the same pipette tip, dispose and repeat for the rest of the test materials • c. Wrap the plate in saran wrap and place into the container • 2. Plate 2 (Discs) • a. Configure the 11 discs in the plate so the plate cover is stable • b. Add 1.25 mL from the prepared PBS-AP conical tube to each well (11 wells) • c. Add 100 μL of the test material to the center of the disc and repeat for the rest of the test materials • d. Put the plate cover on and place into the container • 3. […] Incubate for 1 hour Reading Results • 1. Measure at OD405

porcine skin = tested on: porcine skin
Description: Our initial studies involved using fresh and frozen porcine skin “buttons”. These buttons were punched out of porcine skin (Spear Products, Cooopersburg, PA) using a […] biopsy punch tool. Three different kinds of skin buttons were prepared from fresh porcine skin, frozen porcine skin, and frozen porcine skin with the fatty layer removed. […] The next day, the tubes were taken out and vortexed and 500 μL of the solution was aliquoted into cuvettes to read at three different optical density wavelengths (OD190, OD290, OD300) to evaluate the best response.
Skin Preparation • 1. Thaw 2 pieces of frozen porcine skin • 2. Punch out buttons: 24 buttons in each tube filled with 40 mL PB S-Azide 96-well plate Preparation • 1. Plate layout for dosing:
Procedure • 1. Dose each tissue with 140 μL of test chemical • 2. […] Take out of incubator and vortex pulse 3× • 2. Aliquot 500 μL to cuvette and read results at OD190, OD290, and OD300
There were three readings done at an optical density of 190, 290, and 300 nm to evaluate the best response. […] To address the variable exposure conditions, our next studies involved placing a larger porcine skin section into a holder that exposes only the epidermis side with no potential for test chemical exposure from the backside or through the sides.

alkaline phosphatase [4] = type: biochemical; remark: listed apart in the source
Description: For the new study, the alkaline phosphatase was suspended in phosphate buffered saline (PBS) to make the reaction reagent. Then, 100 μL of the test chemical is added directly into the corresponding wells on a 24-well plate with 1.25 mL of alkaline phosphatase reaction reagent already aliquoted.
Preparation • 1. Alkaline phosphatase reaction reagent • a. Take 1 vial of AP, add 1 mL of PBS, mix by pipette/re-pipette 10 times • b. To a 50 mL conical tube, add 1 mL of the AP solution prepared above and 40 mL of PBS • 2. Prepare two 24-well plates • 3. […] Aliquot with 200 μL PNPP and PBS • 4. Prepare glass vials Repeat Procedure from 1-3-23 • 1. 24-well plate • a. Add 1.25 mL from the prepared PBS-AP conical tube to each well (11 wells) • b. Add 100 μL of the test material to the well, mix with the same pipette tip, dispose and repeat for the rest of the test materials • c. Wrap the plate in saran wrap and place into the container • 2. […] To the prepared 96-well plate with 200 μL PNPP or PBS, add 20 μL from the 24-well plate • 4. Incubate for 1 hour • 5. […] 24-well plate • a. Add 1.25 mL from the prepared PBS-AP conical tube to each well (11 wells) • b. Add 100 μL of the test material to the well, mix with the same pipette tip, dispose and repeat for the rest of the test materials • c. After 10 minutes, mix each well • 2. To the prepared 96-well plate with 200 μL PNPP or PBS, add 20 μL from the 24-well plate • 3. […] Aliquot 200 μL from the 24-well plate to glass vials filled with 2 mL of PNPP

alkaline phosphatase [5] = type: biochemical; conditions: PBS; 18 hours room temperature, PNPP 1 hour
Text: Our next study compared different dilutions of the original alkaline phosphatase source (1:10 [Activity: 1,000 units] and 1:100 [100 units]) and two sources of alkaline phosphatase, both purchased from Sigma Aldrich (St. Louis, MO). […] The five conditions for this study included original alkaline phosphatase (1:1), original alkaline phosphatase (1:10), original alkaline phosphatase (1:100), new alkaline phosphatase (1:1), and the blanks (phosphate buffered saline (PBS)). […] The two controls contained ink to determine if there would be any background effect.
Preparation • 1. Alkaline phosphatase reaction reagent • a. Original AP • i. Add 1 mL PBS into AP vial, pipette re-pipette 10 times, then invert with cap on, to mix well. Take this 1 mL and add to 50 mL conical tube filled with 40 mL PBS. Invert to mix 10 times, vortex mix, let sit 2 minutes, invert to mix again 10 times • ii. Prepare 2 more 50 mL conical tubes • 1. 1:10 • a. […] 1:100 • a. Take 4 mL of solution made above, add to 36 mL PBS. […] New AP • i. Add 400 mg into a 50 mL conical tube filled with 40 mL PBS. Invert to mix 10 times, vortex mix, let sit 2 minutes, invert to mix 10 more times. Check to make sure all suspended. If not, vortex mix and invert until fully suspended. • 2. Prepare 24-well plates • 3. […] Aliquot with 200 μL PNPP Conditions • 1. Old AP • 2. Old AP (1:10) • 3. Old AP (1:100) • 4. New AP • 5. Blank (PBS only) Procedure • 1. 24-well plates • a. Add 1 mL (using P1000, blue tips) of the prepared PBS-AP to the plate (for each condition) • b. Add 100 μL of the test material to the well, mix with the same pipette tip, dispose and repeat for the rest of the test materials • c. Wrap the plate in saran wrap and place into the container • d. […] To the prepared 96-well plate with 200 μL PNPP or PBS, add 20 μL from the 24-well plate • 3. Incubate for 1 hour • 4.

alkaline phosphatase [6] = conditions: 30 μL chemical in 300 μL reagent 1:100, 4 hours room temperature, 3 mL PNPP 1 hour
Description: We changed the test chemical dosage to 30 μL and the alkaline phosphatase reaction reagent to 300 μL, but kept the incubation to 4 hours at room temperature.
PBS: Take 4 mL of AP (1:10) stock solution, add to 36 mL PBS. Vortex mix and then invert to mix 10 times • ii. […] Vortex mix and then invert to mix 10 times • b. PBS (lx) • c. […] Prepare 4 mL glass vials for dosing • a. Four sets • i. R1+ (PBS-AP) • ii. R1− (PBS) • iii. […] Prepare 96-well plates for PNPP reading (3 wells for each test chemical) Procedure • 1. Aliquot 300 μL of each reaction reagent to 4 mL glass vials. • 2. Add 30 μL of the test sample to each 4 mL glass vial. • 3. Incubate at room temperature for 4 hours. • 4. Aliquot 3 mL of PNPP to each 4 mL glass vial, let sit for 1 hr. • a. Aliquot 750 μL into the 4 mL glass vial to stop the reaction. • 5.

[7] = chemical lists of the experiments
[8] = 10 minutes test chemical exposure

CCCCCCCCC=O [Nonyl aldehyde]
A2 - Results AVG (alkaline phosphatase [1]): 2.227 | A2 - Results R1 (alkaline phosphatase [1]): 2.496 | A2 - Results R3 (alkaline phosphatase [1]): 2.117 | OD405 reading, ethanol solvent, 10 μL dose, 1-hour PNPP (FIG. 7B) (alkaline phosphatase [2]): 3.078 | OD405 reading, ethanol solvent, 10 μL dose, 30-minute PNPP (FIG. 7A) (alkaline phosphatase [2]): 1.589 | in vivo GHS (skin; [7]): Cat. 2

CC(=O)O [Acetic acid]
percent of phosphatase measured (optical density compared to the naïve condition), average (phosphatase): 18.9% | percent of phosphatase measured (optical density compared to the naïve condition) (phosphatase): 19.1% and 18.6% | raw optical density reading (PNPP), with discs (FIG. 3A) (alkaline phosphatase [3]): 0.106 and 0.102 and 0.103 | raw optical density reading (PNPP), without discs (FIG. 3B) (alkaline phosphatase [3]): 0.104 and 0.129 and 0.101 | A1 - Results AVG (alkaline phosphatase [1]): 0.096 | A1 - Results R1 (alkaline phosphatase [1]): 0.096 | A1 - Results R3 (alkaline phosphatase [1]): 0.096 | A2 - Results AVG (alkaline phosphatase [1]): 0.850 | A2 - Results R1 (alkaline phosphatase [1]): 0.996 | A2 - Results R3 (alkaline phosphatase [1]): 0.829 | OD190 (porcine skin; pig): >3A | Corrosive (skin; rabbit, in vivo): Yes

[K+].[OH-] [Potassium hydroxide (10%), Potassium hydroxide]
raw optical density reading (PNPP), repeat without discs (FIG. 4) (alkaline phosphatase [4]): 0.123 and 0.124 | A2 - Results AVG (alkaline phosphatase [1]): 0.108 | A2 - Results R1 (alkaline phosphatase [1]): 0.107 | A2 - Results R3 (alkaline phosphatase [1]): 0.108

C=CCCC=C [1,5-Hexadiene]
A2 - Results AVG (alkaline phosphatase [1]): 2.717 | A2 - Results R1 (alkaline phosphatase [1]): 2.692 | A2 - Results R3 (alkaline phosphatase [1]): 2.693 | OD405 reading, ethanol solvent, 10 μL dose, 1-hour PNPP (FIG. 7B) (alkaline phosphatase [2]): 2.947 | OD405 reading, ethanol solvent, 10 μL dose, 30-minute PNPP (FIG. 7A) (alkaline phosphatase [2]): 1.702

CCCCCCCC(=O)O [Octanoic Acid]
OD405 readings, original alkaline phosphatase 1:100 (FIG. 6D) (alkaline phosphatase [5]): 3.462 and 3.491 and 3.333 | A2 - Results AVG (alkaline phosphatase [1]): 2.342 | A2 - Results R1 (alkaline phosphatase [1]): 2.12 | A2 - Results R3 (alkaline phosphatase [1]): 2.129 | OD405 readings, buffered saline alkaline phosphatase reaction reagent, glass vials (FIG. 11B) (alkaline phosphatase [6]): 1.427 and 1.415 and 1.416 | OD405 readings, ethanol alkaline phosphatase reaction reagent, glass vials (FIG. 11D) (alkaline phosphatase [6]): 3.283 and 3.408 and 3.220

Cc1ccc(C(C)C)cc1O
OD405 readings, original alkaline phosphatase 1:100 (FIG. 6D) (alkaline phosphatase [5]): 0.991 and 0.974 and 1.167 | A2 - Results AVG (alkaline phosphatase [1]): 2.597 | A2 - Results R1 (alkaline phosphatase [1]): 2.462 | A2 - Results R3 (alkaline phosphatase [1]): 2.772 | OD405 readings, buffered saline alkaline phosphatase reaction reagent, glass vials (FIG. 11B) (alkaline phosphatase [6]): 1.990 and 1.926 | OD405 readings, ethanol alkaline phosphatase reaction reagent, glass vials (FIG. 11D) (alkaline phosphatase [6]): 3.444 and 3.465 and 3.398 | in vivo GHS (skin; [7]): Cat. 1B/1C

CN(C)CCCNCCCN [Dimethyldipropylenetriamine]
percent of phosphatase measured (optical density compared to the naïve condition), average (phosphatase): 20.6% | percent of phosphatase measured (optical density compared to the naïve condition) (phosphatase): 23.5% and 17.7% | raw optical density reading (PNPP), with discs (FIG. 3A) (alkaline phosphatase [3]): 0.152 and 0.159 and 0.140 | raw optical density reading (PNPP), without discs (FIG. 3B) (alkaline phosphatase [3]): 0.138 and 0.176 and 0.133 | raw optical density reading (PNPP), repeat without discs (FIG. 4) (alkaline phosphatase [4]; 405 nm, 18 hours 37° C. exposure, PNPP 1 hour): 0.132 and 0.128 and 0.127 | 10-minute PNPP incubation readings (FIG. 5A) (alkaline phosphatase [4]; [8]): 3.500 | 18-hour PNPP incubation readings (FIG. 5D) (alkaline phosphatase [4]; [8]): 0.110 | A2 - Results AVG (alkaline phosphatase [1]): 0.117 | A2 - Results R1 (alkaline phosphatase [1]): 0.119 | A2 - Results R3 (alkaline phosphatase [1]): 0.114 | OD190 (porcine skin; fresh porcine skin, 140 μL test chemical, R 1 and 2, >3A = outside readable range): >3A | Corrosive (skin; Yes/No): Yes | in vivo GHS (skin; Tables 1A-1C and 2): Cat. 1A | in vivo GHS (skin; [7]): Cat. 1A
